In publication PMC9239047 (mBio, 2022):
Positions of bridges follow the written chain, without caps; N, C: chain ends. Residues, ends and D or L forms follow the SMILES beside them.

Tests used:
MRSA agr-I = MRSA agr-I (Staphylococcus aureus, UniProt O07911); assay: MRSA agr-I P3::YFP fluorescent reporter assay; assay type: cell-based
MRSA agr-II = MRSA agr-II (Staphylococcus aureus, UniProt O33587); assay: MRSA agr-II P3::YFP fluorescent reporter assay; assay type: cell-based
MRSA agr-III = MRSA agr-III (Staphylococcus aureus, UniProt O33590); assay: MRSA agr-III P3::YFP fluorescent reporter assay; assay type: cell-based
MRSA agr-III, sequence (O33590 entry or part of it): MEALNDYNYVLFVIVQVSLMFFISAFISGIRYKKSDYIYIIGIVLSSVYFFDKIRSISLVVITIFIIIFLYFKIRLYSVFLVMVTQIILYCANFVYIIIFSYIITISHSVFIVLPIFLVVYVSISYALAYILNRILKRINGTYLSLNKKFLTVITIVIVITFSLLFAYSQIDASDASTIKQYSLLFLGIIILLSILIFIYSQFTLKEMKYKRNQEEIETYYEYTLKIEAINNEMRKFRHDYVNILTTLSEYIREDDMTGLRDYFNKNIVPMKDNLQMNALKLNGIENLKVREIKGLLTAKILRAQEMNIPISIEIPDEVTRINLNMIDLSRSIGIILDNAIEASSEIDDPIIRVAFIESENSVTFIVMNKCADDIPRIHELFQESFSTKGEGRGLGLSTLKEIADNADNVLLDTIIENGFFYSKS

MRSA agr-IV = MRSA agr-IV (Staphylococcus aureus, UniProt Q309Z2); assay: MRSA agr-IV P3::YFP fluorescent reporter assay; assay type: cell-based; details: for inhibition of MRSA agr-IV by synthetic AIP (in words): synthetic AIP dose response, 24 h fluorescence
MRSA agr-IV, sequence (Q309Z2 entry or part of it): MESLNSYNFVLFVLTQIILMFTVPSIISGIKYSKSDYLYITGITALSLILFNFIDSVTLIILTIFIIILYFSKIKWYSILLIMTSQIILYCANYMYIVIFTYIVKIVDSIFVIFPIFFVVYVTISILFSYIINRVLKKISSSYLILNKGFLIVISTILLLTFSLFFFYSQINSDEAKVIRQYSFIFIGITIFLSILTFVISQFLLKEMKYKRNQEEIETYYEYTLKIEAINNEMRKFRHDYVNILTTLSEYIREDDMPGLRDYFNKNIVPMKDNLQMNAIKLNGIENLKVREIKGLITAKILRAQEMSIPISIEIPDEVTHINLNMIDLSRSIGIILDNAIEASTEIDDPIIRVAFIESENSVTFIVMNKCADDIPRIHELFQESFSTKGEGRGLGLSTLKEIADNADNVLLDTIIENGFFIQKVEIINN

S. hominis agr-I = S. hominis agr-I P3::sGFP reporter assay (AH5009 + pCM41); assay type: cell-based, Staphylococcus hominis; details: for S. hominis agr-I reporter growth (OD600): increasing concentrations of synthetic AIP; for effect on S. hominis agr-I fluorescent signal (in words): increasing doses of synthetic AIP, early signal
S. hominis agr-II = S. hominis agr-II P3::sGFP reporter assay (AH4553 + pCM41); assay type: cell-based, Staphylococcus hominis; details: for S. hominis agr-II reporter growth (OD600): increasing concentrations of synthetic AIP; for effect on S. hominis agr-II fluorescent signal (in words): increasing doses of synthetic AIP, early signal
USA300 MRSA (strain LAC) = assay: Murine dermonecrosis model; assay type: in vivo, BALB/c mice; details: 10 or 50 μg synthetic AIP-II in DMSO mixed with 1 × 10^8 CFU MRSA, intradermal; vs vehicle; n = 10 per group; dose dependent
MRSA strain LAC = assay: Murine epicutaneous infection; assay type: in vivo, C57BL/6J mice
S. epidermidis agr-I = S. epidermidis agr-I (Staphylococcus epidermidis, UniProt O86861); assay: S. epidermidis agr-I P3::sGFP reporter assay; assay type: cell-based
S. epidermidis agr-I, sequence (O86861 entry or part of it): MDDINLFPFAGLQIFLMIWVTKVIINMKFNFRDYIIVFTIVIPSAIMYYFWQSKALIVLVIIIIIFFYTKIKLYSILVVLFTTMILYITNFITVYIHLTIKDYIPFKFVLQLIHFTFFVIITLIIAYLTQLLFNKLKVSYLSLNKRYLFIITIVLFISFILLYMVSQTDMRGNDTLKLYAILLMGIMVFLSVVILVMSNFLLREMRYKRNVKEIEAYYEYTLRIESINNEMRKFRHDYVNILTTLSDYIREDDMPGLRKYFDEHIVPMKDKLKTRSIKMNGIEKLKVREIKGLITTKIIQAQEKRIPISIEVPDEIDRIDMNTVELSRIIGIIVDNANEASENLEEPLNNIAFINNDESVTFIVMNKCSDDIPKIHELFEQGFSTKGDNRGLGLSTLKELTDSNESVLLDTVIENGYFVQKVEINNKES

MRSA = details: mouse model; cited from earlier work
[1] = test system: S. hominis AH5009 AgrA-regulated genes; assay: RNA-seq of apicidin-treated S. hominis agr-I; assay type: cell-based, Staphylococcus hominis
[2] = test system: S. hominis AH5009 PSM-β1 production; assay: Mass spectrometric detection of PSM-β1 in conditioned medium; assay type: cell-based, Staphylococcus hominis; details: 100 μM apicidin or DMSO, 8 h; LC-MS; triplicate injections of biological triplicates
[3] = cognate AIP, fluorescence at 8 h
[4] = 100 μM apicidin vs DMSO, over 24 h
[5] = 100 μM apicidin vs DMSO, 4-fold cutoff, false discovery rate P value ≤0.05
[6] = RNA-seq, S. hominis AH5009, 100 μM apicidin vs DMSO, 8 h, biological triplicate
[7] = RNA-seq, S. hominis AH5009, 100 μM apicidin vs DMSO, 8 h, outside 4-fold cutoff

MRSA agr-II, sequence (O33587 entry or part of it): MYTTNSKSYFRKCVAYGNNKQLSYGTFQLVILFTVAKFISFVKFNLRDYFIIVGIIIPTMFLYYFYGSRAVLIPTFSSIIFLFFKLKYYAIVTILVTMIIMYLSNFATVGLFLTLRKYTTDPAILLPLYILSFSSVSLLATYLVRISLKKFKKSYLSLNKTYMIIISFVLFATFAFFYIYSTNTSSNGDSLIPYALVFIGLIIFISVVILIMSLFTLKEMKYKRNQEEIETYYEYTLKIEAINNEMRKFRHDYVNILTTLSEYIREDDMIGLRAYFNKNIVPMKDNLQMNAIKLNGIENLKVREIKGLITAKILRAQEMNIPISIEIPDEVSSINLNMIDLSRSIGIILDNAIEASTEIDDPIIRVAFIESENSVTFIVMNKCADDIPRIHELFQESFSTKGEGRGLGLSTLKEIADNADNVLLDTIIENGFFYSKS
MRSA agr-I, sequence (O07911 entry or part of it): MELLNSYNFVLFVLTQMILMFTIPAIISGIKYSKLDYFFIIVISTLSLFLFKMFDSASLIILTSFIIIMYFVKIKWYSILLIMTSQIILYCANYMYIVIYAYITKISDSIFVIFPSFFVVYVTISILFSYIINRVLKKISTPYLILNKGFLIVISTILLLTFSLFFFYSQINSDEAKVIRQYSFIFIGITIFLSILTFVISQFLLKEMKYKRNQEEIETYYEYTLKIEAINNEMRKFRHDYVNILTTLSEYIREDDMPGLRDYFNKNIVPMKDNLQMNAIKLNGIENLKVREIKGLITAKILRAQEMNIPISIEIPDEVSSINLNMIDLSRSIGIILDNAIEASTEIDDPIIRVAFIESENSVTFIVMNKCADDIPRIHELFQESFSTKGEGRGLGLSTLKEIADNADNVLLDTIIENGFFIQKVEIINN

CC[C@H](C)[C@H](NC(=O)[C@@H](N)[C@@H](C)O)C(=O)N[C@@H](CC(N)=O)C(=O)N[C@H](C(=O)N[C@H]1CSC(=O)[C@H](Cc2ccccc2)NC(=O)[C@H](Cc2ccc(O)cc2)NC(=O)CNC(=O)CNC1=O)[C@@H](C)O [AIP-IV] (H-TINTCGGYF; thioester 5-C; N-terminus assumed)
IC50 (MRSA agr-I): 0.128 µM | IC50 (MRSA agr-II): 0.14 µM | IC50 (MRSA agr-III): 0.037 µM | inhibition of MRSA agr-IV by synthetic AIP (in words) (MRSA agr-IV): not inhibited | S. hominis agr-I reporter growth (OD600) (S. hominis agr-I): did not impact the growth | effect on S. hominis agr-I fluorescent signal (in words) (S. hominis agr-I): slightly boosted early agr-I signaling | S. hominis agr-II reporter growth (OD600) (S. hominis agr-II): did not impact the growth | effect on S. hominis agr-II fluorescent signal (in words) (S. hominis agr-II): negligible effects on agr-II

C[C@@H]1NC(=O)[C@@H](NC(=O)[C@@H]2CCCN2C(=O)[C@H](CO)NC(=O)[C@H](Cc2ccc(O)cc2)NC(=O)[C@@H](N)CO)CSC(=O)[C@H](Cc2ccccc2)NC(=O)[C@H](Cc2ccc(O)cc2)NC(=O)[C@H]([C@@H](C)O)NC1=O [AIP-II] (H-SYSPCATYF; thioester 5-C; N-terminus assumed)
IC50 (MRSA agr-I): 0.015 µM | IC50 (MRSA agr-II): 2.11 µM | IC50 (MRSA agr-III): 0.003 µM | IC50 (MRSA agr-IV): 1.13 µM | inhibition of MRSA agr-IV by synthetic AIP (in words) (MRSA agr-IV): poorly inhibited | S. hominis agr-I reporter growth (OD600) (S. hominis agr-I): no effect on reporter growth | IC50 (S. hominis agr-I; read-out: IC50, inhibition of S. hominis agr-I signaling, noncognate synthetic AIP dose response, relative fluorescence at 8 h, three independent experiments pooled): 0.009 µM | concentration of synthetic AIP optimal to boost S. hominis agr-II fluorescent signal (S. hominis agr-II; [3]): 12.5 nM | S. hominis agr-II reporter growth (OD600) (S. hominis agr-II): no effect on growth | dermonecrotic lesion size (USA300 MRSA (strain LAC)): significantly smaller lesions | barrier function by transepithelial water loss (TEWL) (MRSA strain LAC; 10 or 50 μg synthetic AIP-II with 1 × 10^8 CFU MRSA on gauze, 72 h topical, vs vehicle, n = 10 per group): retained more of their barrier function | total CFU burden in epicutaneous lesions (MRSA strain LAC; 10 or 50 μg synthetic AIP-II, 72 h postinfection): no differences in CFU between groups | gross morphology of the skin (MRSA strain LAC; synthetic AIP-II-treated vs vehicle control mice, 72 hpi): less redness, scaling, and erythema

CC(C)[C@H](NC(=O)[C@@H](NC(=O)[C@H](CCC(N)=O)NC(=O)[C@@H](N)CO)[C@@H](C)O)C(=O)N[C@H]1CSC(=O)[C@H](Cc2ccccc2)NC(=O)[C@H](Cc2ccc(O)cc2)NC(=O)CNC(=O)[C@H](CO)NC1=O [AIP-V] (H-SQTVCSGYF; thioester 5-C; N-terminus assumed)
IC50 (MRSA agr-I): 0.043 µM | IC50 (MRSA agr-II): 0.059 µM | IC50 (MRSA agr-III): 0.004 µM | IC50 (MRSA agr-IV): 3.81 µM | inhibition of MRSA agr-IV by synthetic AIP (in words) (MRSA agr-IV): poorly inhibited | S. hominis agr-I reporter growth (OD600) (S. hominis agr-I): did not impact the growth | effect on S. hominis agr-I fluorescent signal (in words) (S. hominis agr-I): weak to negligible effects on agr-I | S. hominis agr-II reporter growth (OD600) (S. hominis agr-II): did not impact the growth | effect on S. hominis agr-II fluorescent signal (in words) (S. hominis agr-II): modestly inhibited agr-II

CC(C)[C@H](NC(=O)[C@H](CC(N)=O)NC(=O)[C@H](Cc1ccc(O)cc1)NC(=O)[C@@H](N)CO)C(=O)N[C@H]1CSC(=O)[C@H](Cc2ccccc2)NC(=O)[C@H](Cc2ccc(O)cc2)NC(=O)CNC(=O)CNC1=O [AIP-I] (H-SYNVCGGYF; thioester 5-C)
inhibition of MRSA agr-IV by synthetic AIP (in words) (MRSA agr-IV): poorly inhibited | inhibition of S. epidermidis agr-I (in words) (S. epidermidis agr-I; synthetic AIP dose response): poor inhibitor | S. epidermidis agr-I early fluorescent signal (S. epidermidis agr-I; synthetic AIP, first 8 h of incubation): boosted the fluorescent signal | concentration of synthetic AIP that significantly boosted S. hominis agr-I fluorescent signal (S. hominis agr-I; [3]): ≥ 25 nM | S. hominis agr-I reporter growth (OD600) (S. hominis agr-I): no effect on growth | S. hominis agr-II reporter growth (OD600) (S. hominis agr-II): no impact on reporter growth | IC50 (S. hominis agr-II; read-out: IC50, inhibition of S. hominis agr-II fluorescent signaling, noncognate synthetic AIP dose response, relative fluorescence at 8 h, three independent experiments pooled): 0.007 µM | MRSA-associated AD symptoms (MRSA): effectively mitigates MRSA-associated AD symptoms

CCC(=O)CCCCC[C@@H]1NC(=O)[C@H]2CCCCN2C(=O)[C@H]([C@@H](C)CC)NC(=O)[C@H](Cc2cn(OC)c3ccccc23)NC1=O [apicidin]
S. hominis agr-I P3::sGFP growth (OD600) (S. hominis agr-I; [4]): no effect on growth | S. hominis agr-I signaling (P3::sGFP fluorescence) (S. hominis agr-I; [4]): inhibited S. hominis agr-I signaling | number of genes downregulated [1, 5]: 40 genes | number of genes significantly upregulated [1, 5]: 7 genes | Fold change, MOV58_00040 serine--tRNA ligase [1, 6]: -5.87 fold | Fold change, MOV58_00405 arsenate reductase [1, 6]: -5.32 fold | Fold change, MOV58_00410 anion permease [1, 6]: -4.39 fold | Fold change, MOV58_00550 (S)-acetoin forming diacetyl reductase [1, 6]: -7.89 fold | Fold change, MOV58_01010 acetoin reductase/dehydrogenase [1, 6]: -5.45 fold | Fold change, MOV58_01015 yxel choloylglycine hydrolase family protein [1, 6]: -4.94 fold | Fold change, MOV58_01105 excinuclease ABC subunit UvrA [1, 6]: 8.12 fold | Fold change, MOV58_01110 arylamine N-acetyltransferase [1, 6]: 9.09 fold | Fold change, MOV58_01115 ABC2 transporter permease [1, 6]: 9.05 fold | Fold change, MOV58_01120 ABC transporter ATP binding protein btuD [1, 6]: 10.45 fold | Fold change, MOV58_01125 DUF3169 family protein [1, 6]: 19.01 fold | Fold change, MOV58_01130 helix turn helix transcriptional regulator [1, 6]: 18.5 fold | Fold change, MOV58_02040 aldehyde dehydrogenase family protein [1, 6]: -4.94 fold | Fold change, MOV58_05440 hypothetical protein [1, 6]: -5.09 fold | Fold change, MOV58_05705 hypothetical protein [1, 6]: -4.08 fold | Fold change, MOV58_05710 hypothetical protein [1, 6]: -6.86 fold | Fold change, MOV58_05715 fructose-bisphosphatase class III [1, 6]: -6.94 fold | Fold change, MOV58_05720 hypothetical protein [1, 6]: -5.64 fold | Fold change, MOV58_05820 hypothetical protein [1, 6]: -9.59 fold | Fold change, MOV58_06035 universal stress protein [1, 6]: -4.69 fold | Fold change, MOV58_06695 RNA polymerase sigma factor RpoD [1, 6]: -10.14 fold | Fold change, MOV58_07655 hypothetical protein [1, 6]: 4.07 fold | Fold change, MOV58_07775 hypothetical protein [1, 6]: -4.58 fold | Fold change, MOV58_07810 MerR family transcriptional regulator [1, 6]: -4.32 fold | Fold change, MOV58_08480 beta class phenol soluble modulin [1, 6]: -11.36 fold | Fold change, MOV58_08485 beta class phenol soluble modulin [1, 6]: -11.33 fold | Fold change, MOV58_08490 beta class phenol soluble modulin [1, 6]: -9.37 fold | Fold change, MOV58_08495 beta class phenol soluble modulin [1, 6]: -8.82 fold | Fold change, MOV58_09035 hypothetical protein [1, 6]: -4.5 fold | Fold change, MOV58_09040 IDEAL domain containing protein [1, 6]: -6.02 fold | Fold change, MOV58_09615 Hypothetical protein [1, 6]: -4.82 fold | Fold change, MOV58_09645 hypothetical protein [1, 6]: -5.25 fold | Fold change, MOV58_09650 hypothetical protein [1, 6]: -5.02 fold | Fold change, MOV58_09655 hypothetical protein [1, 6]: -4.73 fold | Fold change, MOV58_09715 phosphoglycerate kinase [1, 6]: -6.94 fold | Fold change, MOV58_09720 type I glyceraldehyde-3-phosphate dehydrogenase [1, 6]: -4.93 fold | Fold change, MOV58_09725 CggR, central glycolytic genes regulator [1, 6]: -7.22 fold | Fold change, MOV58_09730 hypothetical [1, 6]: -5.22 fold | Fold change, MOV58_10080 fructose-specific PTS transporter subunit EIIC [1, 6]: -4.31 fold | Fold change, MOV58_10085 1-phosphofruktokinase [1, 6]: -22.43 fold | Fold change, MOV58_10090 DeoR/GlpR family DNA-binding transcription regulator [1, 6]: -27.93 fold | Fold change, MOV58_10435 alpha/beta hydrolase [1, 6]: -6.85 fold | Fold change, MOV58_10445 Hypothetical protein [1, 6]: -10.93 fold | Fold change, MOV58_10515 flavodoxin family protein [1, 6]: -5.24 fold | Fold change, MOV58_10990 Hypothetical protein [1, 6]: -4.65 fold | Fold change, MOV58_11890 LytTR family DNA binding domain containing protein [1, 6]: -7.12 fold | Fold change, MOV58_11895 DUF3021 domain-containing protein [1, 6]: -5.21 fold | RNAIII expression, down -fold [1, 7]: 3.40 fold | agrB expression, down -fold [1, 7]: 2.89 fold | agrD expression, down -fold [1, 7]: 3.08 fold | PSM-β1 presence in S. hominis cultures [2]: present only in S. hominis cultures treated with DMSO, not in those treated with apicidin
